Source: publication PMC6274376, “Naturally Inspired Molecules as Multifunctional Agents for Alzheimer’s Disease Treatment” (Molecules, 2016)
Where “and” joins values, the source holds several entries; their conditions need not be identical. Equal values may be shown once.

Tests used:
SH-SY5Y cells = experiment: Neurotoxicity, MTT cell viability assay; format: cell-based, human; conditions: SH-SY5Y cells, MTT
Experimental: Cytotoxic effects in several in vitro or in vivo models have been reported for some chalcones. Therefore, to discriminate the neurotoxic concentrations of the conjugates 3–5 we evaluated the cell viability of human neuronal SH-SY5Y cells after 24 h treatment with these conjugate at different concentrations (1.25–40 μM) using the MTT assay. […] Thus, the presence of an α,β-unsatured carbonyl fragment seems to positively influence the degree of neuronal toxicity, leading to molecules endowed with a favorable SI.
Human neuronal (SH-SY5Y) cells were routinely grown in Dulbecco’s modified Eagle’ Medium (DMEM) supplemented with 10% fetal bovine serum, 2 mmol/L-glutamine, 50 U·mL^−1penicillin and 50 μg·mL^−1streptomycin at 37 °C in a humidified incubator with 5% CO2.
To evaluate the neurotoxicity of compounds, the SH-SY5Y cells were seeded in 96-well plates at 2 × 10^4 cells/well, incubated for 24 h and subsequently treated with various concentrations of compounds (1.25–40 µM) for 24 h at 37 °C in 5% CO2;. The cell viability in terms of mitochondrial metabolic function was evaluated by the reduction in 3-(4,5-dimethyl-2-thiazolyl)-2,5-diphenyl-2H-tetrazolium bromide (MTT) to formazan as previously described. The quantity of formazan was directly proportional to the number of viable cells. Briefly, the treatment medium was replaced with MTT (5 mg/mL) in phosphate-buffered saline (PBS) for 2 h at 37 °C in 5% CO2. After washing with PBS, the formazan crystals were dissolved with isopropanol. The amount of formazan was measured (570 nm, reference filter 690 nm) using a multilabel plate reader (VICTOR™ X3, PerkinElmer, Waltham, MA, USA). The neurotoxicity is expressed as concentration of compound resulting in 50% inhibition of cell viability.

[1] = Cu(II) chelating assay (bathocuproinedisulfonic acid disodium salt, BCS); format: physicochemical
Experimental: Data were expressed as chelating activity percentage (Table 2).
The Cu(II) chelating activity of the compounds was determined using the bathocuproinedisulfonic acid disodium salt (BCS) assay as previously described. Briefly, 50 μL of a 0.25 mM CuSO4 solution were mixed for 2 min with 50 μL of 5–20 µM compound solution in 100 µL of HEPES buffer (15 mM). Hydroxylamine (1 mM) was added after 2 min in order to reduce non-chelated cupric ions into cuprous ones. Finally, 50 μL of BCS (5 mM) or water (blank) was added and the absorbance at 490 nm was measured by spectrophotometry using a multilabel plate reader (VICTOR™ X3, PerkinElmer, Waltham, MA, USA) immediately and at 5 min. Na2EDTA (5–20 µM) was used as a positive control. The ability of the test compounds to chelate cupric ions was calculated using the following equation: chelating activity (%) = [1 − (Abs BCS + compound/Abs BCS) × 100].

CN(Cc1ccccc1)Cc1ccc(C(=O)c2ccc(OCCOc3ccc(C(=O)/C=C/c4cccc5ccccc45)c(O)c3)cc2)cc1 [Compound 5, E-1-{4-[2-(4-4-Benzylmethylaminomethylbenzoylphenoxy)ethoxy]-2-hydroxyphenyl}-3-(naphthalen-1-yl)-prop-2-en-1-one]
IC50 (SH-SY5Y cells; Homo sapiens, 24 h treatment, 1.25–40 µM, mean ± SD): > 40 µM
neurotoxic effects (SH-SY5Y cells; 24 h, 1.25–40 μM): not
Cu(II)-Chelating Activity ([1]; 5 µM compound, fixed 40 µM CuSO4): 9.48%
Cu(II)-Chelating Activity ([1]; 10 µM compound, fixed 40 µM CuSO4): 13.78%
Cu(II)-Chelating Activity ([1]; 20 µM compound, fixed 40 µM CuSO4, mean ± SD): 19.73% and 19.73 ± 0.30%
